{"source": "patent US5034531A", "about": "“Fused polycyclic pyranyl compounds as antiviral agents” (priority 1988, dated 1991)"}
{"test_system": "HSV-2", "assay": "Transient expression assay: inhibition of HSV replication (HSV-2-induced β-galactosidase expression from HSV-1 TK promoter/Lac Z plasmid pON 245 in HeLa cells)", "assay_type": "cell-based, Herpes simplex virus HSV-2 (ATCC VR-540)", "conditions": "Human alphaherpesvirus 2, HeLa, 24 h, read-out: IC50-values for Inhibition of HSV replication", "protocol": "The following example illustrates the activities of various compounds for inhibiting beta-galactosidase.\nTransient Expression Assay\nHerpes simplex virus (HSV) is grown and titered on Vero cells, a standard cell line.\nPlasmid pON 245 (constructed by Ed Mocarski at Stanford University, Stanford California) is used for the assay. This plasmid contains the HSV-1 thymidine kinase (TK) promoter located immediately 5' of the E. coli Lac Z gene and controls transcription from the bacterial gene in transient assays. Plasmids (22 μg/10^6 cells) are introduced into standard HeLa cells by DEAE-dextran-mediated transfection. DEAE-dextran is an electropositivity charged polymer which is a diethylamino ethyl ether of dextran. Forty-eight hours after transfection, cells are infected with HSV-2 (American Type Collection Culture (ATCC) VR-540) (multiplicity of infection=5 plaque-forming units per cell). Twenty-four hours after viral infection, levels of β-galactosidase in cells are assayed by incubation in the presence of 4-methylumbelliferyl-β-D-galactoside for 2 hours on a microfluorimeter after addition of 0.1 M glycine buffer, pH=10.3. An inhibitory concentration (IC50 value), for example, of 8 μg/ml indicates the amount of compound which reduces maximal β-galactosidase expression by 50 percent. The inhibition of expression of β-galactosidase activity indicates the inhibition of viral replication at events prior to or including […] kinase (TK) expression by HSV-2.", "units": {"IC50": "µg/mL"}}
{"smiles": "O=c1c(-c2ccccc2)coc2ncc(Br)cc12", "IC50": 10}
{"smiles": "O=c1c2c(oc3ccccc13)-c1ccccc1CCC2", "IC50": 8}
{"smiles": "O=c1c2c(oc3ncccc13)CCc1ccccc1-2", "IC50": 16}
{"smiles": "O=c1c2c(oc3ncccc13)-c1ccccc1CCC2", "IC50": "> 25"}
